Measurements published in BindingDB's records for doi:10.1016/j.bmcl.2015.04.057 (Merck Research Laboratories, 2015).

What was measured:
Coagulation factor IX [1] = target: T1, Coagulation factor IX (Homo sapiens, UniProt P00740); test: (§1) Inhibition of human coagulation factor 9a using fluorescent peptide CH3SO2-D-CHG-Gly-Arg-AFC-AcoH as substrate
Coagulation factor IX [2] = target: T1, Coagulation factor IX; test: as §1; remark: listed apart in the source

T1 sequence (P00740 47-191 limits assumed): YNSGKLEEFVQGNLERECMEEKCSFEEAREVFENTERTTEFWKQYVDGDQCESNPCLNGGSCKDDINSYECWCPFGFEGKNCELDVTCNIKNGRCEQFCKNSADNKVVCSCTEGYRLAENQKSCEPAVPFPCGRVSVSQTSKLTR
T1 sequence (P00740 227-461 limits assumed): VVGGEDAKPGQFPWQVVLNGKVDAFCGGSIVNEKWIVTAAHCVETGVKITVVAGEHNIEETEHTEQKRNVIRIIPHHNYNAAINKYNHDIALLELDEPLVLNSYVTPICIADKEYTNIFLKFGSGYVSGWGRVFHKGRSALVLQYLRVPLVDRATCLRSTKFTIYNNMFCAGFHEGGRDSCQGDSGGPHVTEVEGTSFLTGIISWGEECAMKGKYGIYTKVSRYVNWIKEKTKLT

- Ki (Coagulation factor IX [1]): 15.4 nM
- Ki (Coagulation factor IX [2]): 15 nM
Compound: Cc1cc2nc([C@@H](CNC(=O)c3c(Cl)cc(-n4cnnc4)cc3Cl)c3ccccc3)[nH]c2cc1C
